tested on: Cryptosporidium parvum; test: MMV: Cryptosporidium parvum oocysts (Iowa Strain) were prepared for use by treatment with 10 mM HCl (37 degrees C, 10 min) followed by 2 mM sodium taurocholate in phosphate-buffered saline (PBS) with Ca2+ and Mg2+ (16 degrees C, 10 min) in order to stimulate excystation. The high-throughput screen was carried out by inoculating >90% confluent human ileocecal adenocarcinoma (HCT-8) cells (ATCC) with ~5.5 x 10^3 primed oocysts per well. Experimental compounds or DMSO (vehicle) were added three hours after infection, and cells were incubated for 48 hours.; format: functional

SMILES	Inhibition [%]
COc1ccc(Nc2nc(N/N=C/c3ccc(O)cc3)nc(Nc3ccc([N+](=O)[O-])cc3)n2)cc1	-49.8
O=C(NNc1cc(N2CCCC2)nc(N2CCCC2)n1)c1ccccc1	-52.02
COC(=O)c1ccc(Cl)c2c1C1C=CCC1C(c1cccc3ccccc13)N2 (stereo not drawn)	-26.02
O=C(CCc1ccccc1)c1ccccc1OCC(O)CN1CCCCC1 (stereo not drawn)	-4.075
OC1=C2C(=Nc3ccccc3SC2c2ccccc2)c2ccccc21 (stereo not drawn)	-46.02
COC(=O)c1ccc(C2C3=C(O)CC(c4ccc(F)cc4)CC3=Nc3ccccc3N2C(=O)c2ccccc2)cc1 (stereo not drawn)	-18.81
CC(=O)c1sc(NC(=O)Nc2ccc(C)cc2C)nc1C	-18.27
Cn1c(C(=O)c2cccc3ccccc23)nc2ccccc21	-17.7
O=C(Nc1ccc(-c2nc3ccccc3[nH]2)cc1)c1ccc(Cl)c(Cl)c1	10.57
OCCNc1nc(Nc2ccc(Cl)c(Cl)c2)nc2ccccc12	12.96
Nc1ccc(-c2nc3cc(Oc4ccc(Oc5ccc6[nH]c(-c7ccc(N)cc7)nc6c5)cc4)ccc3[nH]2)cc1	-48.18
Cc1cc(N(C)C)nc(Nc2ccc(NC(=O)Nc3ccccc3)cc2)n1	-29.16
Cc1ccc(Nc2nc(N)c3ccccc3n2)cc1Cl	40.42
CCc1ccc(CNCC(O)c2ccccc2)cc1.Cl (stereo not drawn)	-7.138
CCCn1c(=N)c(C(=O)NC2CCCCC2)cc2c(=O)n3cccc(C)c3nc21	-27.29
Nc1ccn([C@@H]2O[C@H](CO)[C@@H](O)[C@H]2O)c(=O)n1 [CYTIDINE]	73.84
O=C(Nc1cccc(C2=NCCN2)c1)Nc1cccc(C2=NCCN2)c1 [IMIDOCARB]	9.453
CN(C)c1ccc(C(O)(c2ccc(N(C)C)cc2)c2ccc(N(C)C)cc2)cc1 [METHYLROSANILINE]	77.77
